In US9321737B2, “CDK8-CDK19 selective inhibitors and their use in anti-metastatic and chemopreventative methods for cancer” (SENEX BIOTECHNOLOGY INC, priority 2012, dated 2016):
pKd: −log10 of the molar value.

Assays:
[1] = Solubility in 20% propylene glycol; assay type: physicochemical
Description: The compounds were also tested for solubility in 20% propylene glycol and in water, as follows. Compounds (dry powder) were dissolved in 20% propylene glycol at a concentration of 1 mM at a temperature of 40° C. with occasional vortexing. After 30 min, the solution was centrifuged at 10,000×g for 5 min. Serial dilutions of the cleared supernatant were prepared and used to measure the compound concentrations through OD reading, relative to 1 μM standard solution of the same compound. The results of the measurement were expressed as % solubility of the compound at 1 mM in 20% propylene glycol. To determine water solubility, the compounds (dry powder) were initially dissolved in water at a concentration of 100 mM at a temperature of 40° C. with occasional vortexing. After 30 min, the solution was centrifuged at 10,000×g for 5 min, and the formation of an insoluble pellet was monitored. At subsequent steps, the compound was attempted to be dissolved at lower concentrations, until no pellet was observed after centrifugation, indicating complete solution of the compound.

CDK8 [2] = target: T1, CDK8 (Homo sapiens, UniProt P49336); assay: Kd determination, CDK8; assay type: binding; settings: in duplicate
From the text: (§1) (16) The results of this analysis are presented in FIGS. 6A-B in the form of an evolutionary dendrogram of the kinase family, where kinase inhibition is represented by red circles, the size of which represents the magnitude of the inhibition.

CDK19 = CDK19 (Homo sapiens, UniProt Q9BWU1); assay: KinomeScan ATP pocket binding inhibition, CDK19; settings: 2,000 nM
From the text: as §1

CDK8 [3] = target: T1, CDK8; assay: KinomeScan ATP pocket binding inhibition, CDK8; settings: 2,000 nM
From the text: as §1

YSK4 = target: T2, YSK4 (Homo sapiens, UniProt Q56UN5); assay: KinomeScan ATP pocket binding inhibition, YSK4; settings: 2,000 nM
T2 construct: purchased KinomeScan, a division of Ambit Biosciences
T2 sequence (Q56UN5 1-1328): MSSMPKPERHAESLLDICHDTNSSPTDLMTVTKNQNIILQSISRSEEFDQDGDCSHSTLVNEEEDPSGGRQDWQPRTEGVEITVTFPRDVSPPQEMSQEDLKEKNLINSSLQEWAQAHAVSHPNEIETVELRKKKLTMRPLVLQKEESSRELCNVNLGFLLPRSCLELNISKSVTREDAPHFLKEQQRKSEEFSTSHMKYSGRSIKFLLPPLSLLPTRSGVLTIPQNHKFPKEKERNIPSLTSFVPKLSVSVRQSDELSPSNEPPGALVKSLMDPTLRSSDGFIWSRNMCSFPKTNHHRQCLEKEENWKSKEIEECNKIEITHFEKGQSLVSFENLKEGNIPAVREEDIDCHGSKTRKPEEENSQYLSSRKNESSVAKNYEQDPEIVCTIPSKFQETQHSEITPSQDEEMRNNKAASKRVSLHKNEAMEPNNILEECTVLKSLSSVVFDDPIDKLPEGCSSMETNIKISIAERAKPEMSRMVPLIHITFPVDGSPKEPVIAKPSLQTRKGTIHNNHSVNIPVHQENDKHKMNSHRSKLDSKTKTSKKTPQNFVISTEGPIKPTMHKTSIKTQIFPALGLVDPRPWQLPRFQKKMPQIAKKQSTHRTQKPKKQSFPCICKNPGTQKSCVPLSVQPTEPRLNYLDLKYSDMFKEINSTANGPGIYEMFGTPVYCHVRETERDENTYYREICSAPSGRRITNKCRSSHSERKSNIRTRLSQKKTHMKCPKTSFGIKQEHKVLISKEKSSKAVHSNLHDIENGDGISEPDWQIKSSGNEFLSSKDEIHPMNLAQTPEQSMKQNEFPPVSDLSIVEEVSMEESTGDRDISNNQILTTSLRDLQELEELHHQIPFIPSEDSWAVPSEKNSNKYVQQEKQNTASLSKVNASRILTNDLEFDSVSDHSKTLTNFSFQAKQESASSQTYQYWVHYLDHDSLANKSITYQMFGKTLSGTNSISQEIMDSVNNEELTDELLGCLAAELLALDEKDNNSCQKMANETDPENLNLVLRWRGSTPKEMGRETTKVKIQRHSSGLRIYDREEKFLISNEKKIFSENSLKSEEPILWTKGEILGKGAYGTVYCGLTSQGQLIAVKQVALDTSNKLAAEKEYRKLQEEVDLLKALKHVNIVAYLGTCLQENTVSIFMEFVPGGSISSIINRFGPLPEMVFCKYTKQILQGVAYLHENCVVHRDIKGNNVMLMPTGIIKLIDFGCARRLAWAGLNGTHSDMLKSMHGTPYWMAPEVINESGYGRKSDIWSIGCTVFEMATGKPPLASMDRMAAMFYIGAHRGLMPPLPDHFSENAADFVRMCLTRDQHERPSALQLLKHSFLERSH
From the text: as §1

>450 kinases = assay: KinomeScan ATP pocket binding inhibition, rest of panel; settings: 2,000 nM
From the text: as §1

[4] = Pharmacokinetics in mouse plasma (gavage); assay type: in vivo; settings: mice, gavage 100 mg/kg
[5] = tested on: A549 human lung xenograft tumors; assay: Pretreatment before A549 xenograft injection; assay type: in vivo, CB-17 SCID mice; settings: 5 daily i.p. 40 mg/kg before s.c. A549 injection; p<0.007 on days 21 and 24
Description: Mice were then injected s.c. with 1×10^6 cells of human A549 lung cancer cell line; the tumor cells were injected in the afternoon of the same day when the last dose of treatment was administered in the morning. Starting from day 7 after tumor injection, mice were monitored for tumor formation twice a week, with 3-4 day intervals, until day 24 after tumor injection; tumor volumes were calculated via caliper measurements. By the end of the study, all the mice in both groups developed measurable tumors. […] Each point represents mean and standard deviation of tumor volume within a group of 10 mice.

4T1 = assay: Breast carcinoma cell growth, MTT, 4T1; assay type: cell-based; settings: five days
MDA-MB-231 = MDA-MB-231 orthotopic TNBC xenograft; assay type: in vivo, female SCID mice; settings: 40 mg/kg, 5 daily doses, three rounds
Description: Once tumors were formed, mice were randomized into 4 cohorts (n=10) and treated, at 7-10 day intervals, with three rounds of: vehicle (5 daily doses), 1 mg/kg doxorubicin (single dose), 40 mg/kg Senexin B (5 daily doses) or doxorubicin (single dose)+Senexin B (5 daily doses).

MDA-MB-468 = MDA-MB-468 TNBC xenograft model; assay type: in vivo, female nude mice; settings: 40 mg/kg Senexin B daily i.p.; 4 mg/kg doxorubicin two injections two weeks apart
Description: Female nude mice were inoculated with MDA-MB-468 cells, and once palpable tumors were formed, mice were randomized into 4 groups, treated daily i.p. with vehicle alone (n=12), 40 mg/kg Senexin B, two injections with 4 mg/kg doxorubicin two weeks apart, or doxorubicin combined with Senexin B (n=8 in each of the latter groups).

T1 sequence (P49336 whole entry): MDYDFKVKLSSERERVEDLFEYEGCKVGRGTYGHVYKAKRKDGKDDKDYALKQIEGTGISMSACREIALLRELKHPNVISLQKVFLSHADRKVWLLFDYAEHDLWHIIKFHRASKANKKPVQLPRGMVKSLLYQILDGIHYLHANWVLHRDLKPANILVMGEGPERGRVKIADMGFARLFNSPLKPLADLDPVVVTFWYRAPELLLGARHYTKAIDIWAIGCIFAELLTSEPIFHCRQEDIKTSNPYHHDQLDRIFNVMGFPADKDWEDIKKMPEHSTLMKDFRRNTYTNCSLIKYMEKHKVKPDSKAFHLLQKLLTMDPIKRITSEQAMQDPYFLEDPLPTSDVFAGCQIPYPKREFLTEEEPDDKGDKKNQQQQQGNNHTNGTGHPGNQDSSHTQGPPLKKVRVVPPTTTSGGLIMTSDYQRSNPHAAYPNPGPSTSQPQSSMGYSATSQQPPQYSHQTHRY
Sequence of CDK19 (Q9BWU1 whole entry): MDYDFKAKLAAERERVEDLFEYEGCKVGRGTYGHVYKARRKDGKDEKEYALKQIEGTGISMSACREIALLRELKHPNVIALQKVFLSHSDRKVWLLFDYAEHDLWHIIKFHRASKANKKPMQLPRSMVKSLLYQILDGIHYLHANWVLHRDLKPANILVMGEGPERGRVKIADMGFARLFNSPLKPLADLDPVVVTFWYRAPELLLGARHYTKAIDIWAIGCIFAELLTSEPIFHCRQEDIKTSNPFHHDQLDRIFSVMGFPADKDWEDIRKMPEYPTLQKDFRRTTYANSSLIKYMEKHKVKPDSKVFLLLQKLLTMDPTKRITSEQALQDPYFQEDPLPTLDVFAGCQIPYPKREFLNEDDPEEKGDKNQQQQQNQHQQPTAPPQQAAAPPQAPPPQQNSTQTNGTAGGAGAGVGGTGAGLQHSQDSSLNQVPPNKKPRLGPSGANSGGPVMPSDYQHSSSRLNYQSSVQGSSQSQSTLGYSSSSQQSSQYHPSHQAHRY

Structure (SMILES): CN1CCN(C(=O)c2ccc3cc(CCNc4ncnc5ccc(C#N)cc45)ccc3c2)CC1 [SNX2-1-165]
- % solubility at 1 mM in 20% propylene glycol ([1]; 1 mM, 40° C., 30 min, centrifuged, OD reading): 100%
- solubility in 20% propylene glycol ([1]; at 1 mM): fully soluble
- pKd (CDK8 [2]): 6.85
- % inhibition of CDK19 (CDK19): 98.6%
- % inhibition of CDK8 (CDK8 [3]): 97.8%
- % inhibition of YSK4 (YSK4): 59%
- % inhibition of all other kinases in the panel (>450 kinases): ≤ 50%
- oral availability [4]: orally available
- peak plasma concentrations [4]: ~50 µM
- tumor growth (tumor volume) after pretreatment [5]: significantly slower tumor growth
- growth inhibition, 4T1 (4T1): not inhibited except for the highest concentrations
- body weight difference from control (MDA-MB-231): no significant weight difference from the control
- tumor growth (tumor volumes after 30 days of treatment) (MDA-MB-468): significantly slowed down the tumor growth
